Measured values as given in ChEMBL document CHEMBL1140793, “Amino acid derivatives as histone deacetylase inhibitors” (2008).

Columns and labels:
[1] = target: Histone deacetylase 1 (Homo sapiens) (UniProt Q13547); experiment: Inhibition of HDAC1
HCT-116 = experiment: Growth inhibition of human HCT116 cells after 72 hrs; format: functional

Sequence of Histone deacetylase 1 (Homo sapiens) (Q13547 whole entry): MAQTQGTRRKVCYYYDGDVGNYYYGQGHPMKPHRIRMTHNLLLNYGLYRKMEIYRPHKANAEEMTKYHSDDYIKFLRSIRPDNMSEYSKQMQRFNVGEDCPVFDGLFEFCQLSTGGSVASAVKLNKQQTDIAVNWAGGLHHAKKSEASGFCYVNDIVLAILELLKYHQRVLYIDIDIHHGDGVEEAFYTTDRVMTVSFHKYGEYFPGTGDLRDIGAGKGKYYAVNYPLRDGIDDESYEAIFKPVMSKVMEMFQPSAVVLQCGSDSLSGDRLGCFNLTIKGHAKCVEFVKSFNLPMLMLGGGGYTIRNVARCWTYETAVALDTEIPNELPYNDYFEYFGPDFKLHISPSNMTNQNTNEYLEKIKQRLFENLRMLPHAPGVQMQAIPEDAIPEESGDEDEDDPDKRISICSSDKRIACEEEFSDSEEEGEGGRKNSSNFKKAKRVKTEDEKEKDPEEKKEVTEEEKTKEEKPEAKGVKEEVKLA

SMILES	Inflection point [1] [nM]	Inflection point (HCT-116) [nM]
Nc1ccccc1NC(=O)c1ccc(C(NC(=O)CCc2ccccc2)C(=O)Nc2ccc3ccccc3c2)cc1 (stereo not drawn)	250	2700
COc1ccc(NC(=O)C(NCCc2ccccc2)c2ccc3cc(C(=O)Nc4ccccc4N)sc3c2)cc1 (stereo not drawn)	71	–
COc1ccc(CNC(C(=O)Nc2ccc(OC)cc2)c2ccc3cc(C(=O)Nc4ccccc4N)sc3c2)cc1 (stereo not drawn)	90	–
Nc1ccccc1NC(=O)c1ccc(C(NC(=O)Cc2ccccc2)C(=O)Nc2ccc3ccccc3c2)cc1 (stereo not drawn)	170	2700
CN1CCN(C(Cc2ccc(C(=O)Nc3ccccc3N)cc2)C(=O)Nc2ccc(Cl)cc2)CC1 (stereo not drawn)	310	370
Cc1ccc(NC(=O)C(c2ccc3cc(C(=O)Nc4ccccc4N)sc3c2)N2CCN(C)CC2)cc1 (racemic) [listing 1 of 2 here]	–	240
Nc1ccccc1NC(=O)c1ccc(C(C(=O)Nc2ccc3ccccc3c2)N2CCN(CCc3ccccc3)CC2)cc1 (stereo not drawn)	680	–
Cc1ccc(NC(=O)C(NC(=O)Cc2ccccc2)c2ccc(C(=O)Nc3ccccc3N)cc2)cc1 (stereo not drawn)	690	8100
Cc1ccc(NC(=O)C(c2ccc3cc(C(=O)Nc4ccccc4N)sc3c2)N2CCN(C)CC2)cc1 (single isomer, unassigned; enantiomer 1) [listing 1 of 2 here]	–	130
CN1CCN(C(C(=O)Nc2ccc(Cl)cc2)c2ccc(C(=O)Nc3ccccc3N)cc2)CC1 (stereo not drawn)	6200	–
Nc1ccccc1NC(=O)c1ccc(C(C(=O)Nc2ccc3ccccc3c2)N2CCN(c3ccccc3)CC2)cc1 (stereo not drawn)	620	–
CN1CCN(C(C(=O)Nc2ccc3ccccc3c2)c2ccc(C(=O)Nc3ccccc3N)cc2)CC1 (stereo not drawn)	360	640
Cc1ccc(NC(=O)C(c2ccc3cc(C(=O)Nc4ccccc4N)sc3c2)N2CCN(C)CC2)cc1 (single isomer, unassigned; enantiomer 2) [listing 1 of 2 here]	–	560
COc1ccc(NC(=O)C(NC(=O)CCc2ccccc2)c2ccc(C(=O)Nc3ccccc3N)cc2)cc1 (stereo not drawn)	260	2800
Cc1ccc(NC(=O)C(NC(=O)CCc2ccccc2)c2ccc(C(=O)Nc3ccccc3N)cc2)cc1 (stereo not drawn)	340	3000
CN1CCN(C(Cc2ccc(C(=O)Nc3ccccc3N)cc2)C(=O)Nc2ccc3ccccc3c2)CC1 (stereo not drawn)	37	220
COc1ccc(NC(=O)C(NCCc2ccncc2)c2ccc3cc(C(=O)Nc4ccccc4N)sc3c2)cc1 (stereo not drawn)	32	–
COc1ccc(NC(=O)C(NCc2ccccc2)c2ccc3cc(C(=O)NO)sc3c2)cc1 (stereo not drawn)	4	–
COc1ccc(NC(=O)C(NC2CCCCC2)c2ccc3cc(C(=O)Nc4ccccc4N)sc3c2)cc1 (stereo not drawn)	74	–
COc1ccc(NC(=O)C(NC(=O)Cc2ccccc2)c2ccc(C(=O)Nc3ccccc3N)cc2)cc1 (stereo not drawn)	870	6400

Further lines, with some results ahead:

Inflection point [1] [nM]	SMILES	Inflection point (HCT-116) [nM]
260	CC(C)(C)OC(=O)N1CCN(C(C(=O)NCc2ccccc2)c2ccc3cc(C(=O)Nc4ccccc4N)sc3c2)CC1 (stereo not drawn)	–
150	CN(C)CCNC(C(=O)NCc1ccccc1)c1ccc2cc(C(=O)Nc3ccccc3N)sc2c1 (stereo not drawn)	–
180	Nc1ccccc1NC(=O)c1cc2ccc(C(C(=O)NCc3ccccc3)N3CCN(CCc4ccccc4)CC3)cc2s1 (stereo not drawn)	–
39	Nc1ccccc1NC(=O)c1cc2ccc(C(NCCc3ccncc3)C(=O)NCc3ccccc3)cc2s1 (stereo not drawn)	–
79	COc1ccc(NC(=O)C(NCc2ccccc2)c2ccc3cc(C(=O)Nc4ccccc4N)sc3c2)cc1 (stereo not drawn)	–
25	CN1CCN(C(C(=O)Nc2ccc3ccccc3c2)c2ccc3cc(C(=O)Nc4ccccc4N)sc3c2)CC1 (stereo not drawn)	580
150	Nc1ccccc1NC(=O)c1cc2ccc(C(NCCO)C(=O)NCc3ccccc3)cc2s1 (stereo not drawn)	–
70	Nc1ccccc1NC(=O)c1cc2ccc(C(NCCc3ccccc3)C(=O)NCc3ccccc3)cc2s1 (stereo not drawn)	–
62	CN1CCN(C(C(=O)Nc2ccc(Cl)cc2)c2ccc3cc(C(=O)Nc4ccccc4N)sc3c2)CC1 (stereo not drawn)	340
860	CN1CCN(C(C(=O)NCc2ccccc2)c2ccc(C(=O)Nc3ccccc3N)cc2)CC1 (stereo not drawn)	–
470	Nc1ccccc1NC(=O)c1cc2ccc(C(C(=O)NCc3ccccc3)N3CCN(C(=O)OCc4ccccc4)CC3)cc2s1 (stereo not drawn)	–
110	Nc1ccccc1NC(=O)c1cc2ccc(C(NCCc3ccccn3)C(=O)NCc3ccccc3)cc2s1 (stereo not drawn)	–
520	Nc1ccccc1NC(=O)c1cc2ccc(C(NCCc3ncc[nH]3)C(=O)NCc3ccccc3)cc2s1 (stereo not drawn)	–
21	Cc1ccc(NC(=O)C(c2ccc3cc(C(=O)Nc4ccccc4N)sc3c2)N2CCN(C)CC2)cc1 (single isomer, unassigned; enantiomer 1) [listing 2 of 2 here]	–
110	CN1CCN(C(C(=O)NCc2ccccc2)c2ccc3cc(C(=O)Nc4ccccc4N)sc3c2)CC1 (stereo not drawn)	430
180	Nc1ccccc1NC(=O)c1cc2ccc(C(NCc3cccnc3)C(=O)NCc3ccccc3)cc2s1 (stereo not drawn)	–
230	Nc1ccccc1NC(=O)c1cc2ccc(C(C(=O)NCc3ccccc3)N3CCN(C/C=C/c4ccccc4)CC3)cc2s1 (stereo not drawn)	–
80	CCN1CCN(C(C(=O)NCc2ccccc2)c2ccc3cc(C(=O)Nc4ccccc4N)sc3c2)CC1 (stereo not drawn)	490
150	Nc1ccccc1NC(=O)c1cc2ccc(C(C(=O)NCc3ccccc3)N3CCN(c4ccccc4)CC3)cc2s1 (stereo not drawn)	–
18	Cc1ccc(NC(=O)C(c2ccc3cc(C(=O)Nc4ccccc4N)sc3c2)N2CCN(C)CC2)cc1 (single isomer, unassigned; enantiomer 2) [listing 2 of 2 here]	–
25	Cc1ccc(NC(=O)C(c2ccc3cc(C(=O)Nc4ccccc4N)sc3c2)N2CCN(C)CC2)cc1 (racemic) [listing 2 of 2 here]	–
43	COc1ccc(NC(=O)C(c2ccc3cc(C(=O)Nc4ccccc4N)sc3c2)N2CCN(C)CC2)cc1 (stereo not drawn)	410
170	COCCNC(C(=O)NCc1ccccc1)c1ccc2cc(C(=O)Nc3ccccc3N)sc2c1 (stereo not drawn)	–
230	Nc1ccccc1NC(=O)c1cc2ccc(C(NCCc3ccccc3)C(=O)NCCN3CCOCC3)cc2s1 (stereo not drawn)	–
